Here are results for one compound from patent publication US4177269A, “Novel 17-esters of 17α-hydroxy gestogens, compositions containing such compounds, processes for their preparation and methods of treatment therewith” (Aktiebolaget Leo, priority 1976, dated 1979).

By LD50 is commonly meant the dose at which mortality reaches 50%.

Series [1] in a line: Walker carcinosarcoma 256 tumour growth inhibition in rats. The series is classed as in vivo, Sprague-Dawley rats. Also noted: ED50: unit: mg/kg. Conditions: rat, in vivo, po, daily p.o. for 5 days. The gist of the method: (§1)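 Sprague-Dawley rats implanted with Walker 256 tumour pieces 2-4 mm across. Compound dosed p.o. daily for 5 days from the day after implantation, and animals killed on day 9. Tumour weights compared with controls. ED50 is the dose giving 50% tumour-size reduction, and LD50 is the dose giving 50% lethality.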

The subject of series [2] is Walker carcinosarcoma 256. The description is as above. The series is classed as in vivo, Sprague-Dawley rats. Details: ED50: unit: mg/kg. Conditions: daily p.o. for 5 days, dose causing 50 percent reduction of tumour size, killed 9th day. The gist of the method: as §1
A short description of series [3]: Hepatome AH 130 tumour growth inhibition in rats. The series is classed as in vivo, Sprague-Dawley rats. Also noted: ED50: unit not given here. Conditions: rat, in vivo, ip, one i.p. injection. The gist of the method:
(§2)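 Sprague-Dawley rats implanted i.p. with 5 × 10^6 tumour cells, given a single i.p. injection the day after implantation, and killed on day 8. Tumour weights compared with controls; ED50 is the dose halving tumour size, LD50 the dose lethal to 50% of animals.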

The next series concerns Hepatome AH 130. Description: Hepatome AH 130 tumour growth inhibition in rats. The format is in vivo, Sprague-Dawley rats. Details: ED50: unit not given here. Conditions: one i.p. injection, dose causing 50 percent reduction of tumour size, killed 8th day. The method, boiled down: as §2
Series [4] has as its system Ehrlich ascites tumour, ELD hyperdiploid. Description: Ehrlich ascites tumour, ELD hyperdiploid (46 chromosomes), growth inhibition in mice. The series is classed as in vivo, SPF NMRI mice. Conditions: 100 mg/kg, one i.p. injection. The gist of the method:
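SPF NMRI mice implanted i.p. with 2 × 10^6 ELD hyperdiploid Ehrlich ascites cells, given one i.p. injection the day after implantation. Animals killed on day 8; tumour weights compared with controls.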

Some results are limits rather than exact numbers.

As for `CC(=O)[C@@]1(OC(=O)COC(=O)c2ccc(C)c(N(CCCl)CCCl)c2)CC[C@H]2[C@@H]3CCC4=CC(=O)CC[C@]4(C)[C@H]3CC[C@@]21C` [Compound 3:7, 17α-/3-(N,N-bis(2-chloroethyl)amino)-4-methylbenzoyloxyacetoxy/pregn-4-ene-3,20-dione], the LD50 was > 250 mg/kg in series [1] (dose causing 50 percent lethality) and > 250 mg/kg in series [3] (dose causing 50 percent lethality, column head not given). Besides, the selectivity ratio was > 15 in series [1] (read-out: T.I. (LD50/ED50)) and > 125 in series [3] (read-out: T.I. (LD50/ED50)). Also, the ED50 in series [2] amounted to 16; in the series with Hepatome AH 130, 2. In series [4], the Mortality was 0/12. Besides, in series [4] (8th day), the “Tumour weight Treated/Control” value was determined as 2%.
